pIC50: −log10 of the molar value.
Experiments:
[1] = tested on: HIV Gag protein (Gag-p24); experiment: Intracellular Gag by p24 ELISA and western blot in LC5-RIC cells; type: cell-based; conditions: HIV-1LAI, 48 h
Experimental: LC5-RIC cells were plated, treated with compounds and inoculated with virus as described for Alu-PCR above. Cells were harvested, washed with PBS and incubated in 200 µl of PBS + 5% Triton X-100 for 5 min at room temperature. Cell lysates were centrifuged for 5 min at 400 g, supernatants collected, diluted 1:10,000 and Gag-p24 was detected by p24 Antigen Capture Assay (ABLinc) according to the manufacturer’s protocol.
Western blot analysis for Gag-p24 and GAPDH was performed as described in[48], using the primary antibodies anti-hGAPDH (ThermoFisher Scientific) and anti-HIV-p24 (Calbiochem) as well as the secondary anti-mouse-peroxidase antibody (Jackson ImmunoResearch), all diluted 1:10,000. Bands were visualized by enhanced chemiluminescence and detected by Fusion FX Chemiluminescence detector. Resulting blot images were processed with Fusion FX Software (adjusting brightness and contrast) and Microsoft PowerPoint (labelling and cropping).

[2] = biological target: T1, recombinant HIV-1 reverse transcriptase (Human immunodeficiency virus type 1 group M subtype B, UniProt P04585); experiment: HIV Reverse Transcriptase Activity Assay (colorimetric kit); type: biochemical; conditions: 10 µM
T1 construct: using 4 ng recombinant HIV-1 reverse transcriptase; purchased Roche
Experimental: HIV Reverse Transcriptase Activity Assay. To determine the inhibitory effect of test compounds against HIV reverse transcriptase activity, the colorimetric Reverse Transcriptase Assay Kit (Roche) was performed according to manufacturer’s protocol using 4 ng recombinant HIV-1 reverse transcriptase. Efavirenz was used as reference compound.

[3] = biological target: T2, recombinant HIV-1 Protease (Human immunodeficiency virus type 1 group M subtype B, UniProt P04585); experiment: HIV Protease Activity Assay (fluorogenic substrate); type: biochemical; conditions: 10 µM
T2 construct: 100 ng recombinant HIV-1 Protease protein (Abcam) was incubated with compounds; purchased Abcam
Experimental: HIV Protease Activity Assay. 100 ng recombinant HIV-1 Protease protein (Abcam) was incubated with compounds diluted in HIV Protease Activity Assay Buffer (0.1 M sodium acetate, 1.0 M sodium chloride, 1.0 mM ethylenediaminetetraacetic acid (EDTA), 1.0 mM dithiothreitol (DTT), 10% dimethyl sulfoxide (DMSO), 1 mg/ml bovine serum albumin (BSA), pH 7.4) for 1 h at room temperature in the dark. After the designated incubation time the mixtures were added to a 2.5 µM solution of HIV Protease Substrate 1 (Sigma-Aldrich) in HIV Protease Activity Assay Buffer prepared in black 96-well plates. The substrate harbours the fluorophore EDANS (5-(2-aminoethylamino)-1-naphthalene sulfonate) and the acceptor chromophore DABCYL (4’-dimethylaminoazobenzene-4-carboxylate) on opposite sides of the cleavage site (Tyr-Pro). Cleavage of the substrate by the HIV-1 protease results in separation of DABCYL and EDANS, eliminating the quenching effects on EDANS fluorescence at 490 nm. After an additional incubation time of 20 min at 37 °C the increase in fluorescence was measured using a fluorescence microplate reader at an excitation filter wavelength of 340 nm and an emission filter wavelength of 490 nm. Saquinavir was used as reference compound.

HIV-1V13-03413B = experiment: Inhibition of multi-drug-resistant clinical isolate HIV-1 V13-03413B in PBMCs; type: cell-based, HIV-type 1; conditions: Human immunodeficiency virus 1, PBMC
Source text: Clinical isolates represented the following HIV genotypes: HIV-1MMVP899-87: HIV-type 1, Major group; HIV-1OMVP5180-91: HIV-type 1, Outlier group; HIV-2MVP10668-93: HIV-type 2; HIV-1V13-03413B: HIV-type 1, Major group/B-clade, isolate with multiple drug-resistance mutations. Depicted are the means of three independent experiments with biological triplicates (n = 3; m = 3) and standard deviations (SD).
Isolation of primary clinical HIV-isolates HIV-1MMVP899-87, HIV-1OMVP5180-91, HIV-1V13-03413B and HIV-2MVP10668-93 is described in[43]. The HIV-1 M group/B-clade isolate (HIV-1V13-03413B) was isolated from a patient with virological treatment failure. Clinical isolates were produced from HIV infected H9 cells as described.
To evaluate anti-HIV efficacies of test compounds in primary human target cells, stimulated PBMCs were seeded in 96-well plates at a density of 500,000 cells per well, different #7concentrations of the compound (serial dilutions) and virus inoculum (MOI of 0.5) added to the PBMCs and cultures incubated for 48 h. Infectious virus production was quantified by transferring 35 µl of supernatant from the PBMC cultures to LC5-RIC cells, seeded in black 96-well plates one day earlier. LC5-RIC cultures were then incubated for 72 h and analysed for DsRed1 reporter expression and anti-HIV activity calculated as described for the EASY-HIT assay.

HIV-1LAI = experiment: Photostability of anti-HIV activity (24 h illumination vs dark, EASY-HIT read-out); type: cell-based; conditions: 24 h illumination vs same compound kept in the dark; compounds at IC90; LC5-RIC
Experimental: Figure 1 Profiling of photostability of anti-HIV activity of Aureothin and synthetic Aureothin-derivatives. Anti-HIV activity of compound samples illuminated for 24 h were normalised to anti-HIV activity of samples of the same compound kept in the dark. Anti-HIV activity was measured by quantifying the amounts of infectious virus produced by HIV-1LAI exposed LC5-RIC cells treated with compounds at IC90 concentrations (Supplementary Table S1). […] Shown are means of at least three independent experiments with biological triplicates (n ≥ 3; m = 3) and the standard error of the mean (SEM) indicated.
LC5-RIC cells were plated as described for the EASY-HIT assay. […] Plates were incubated either in the dark or under constant illumination with a commercially available desk lamp (2X Philips Master PL-S-9W/840/2 P, 30 cm between light source and compounds) for 24 h at room temperature. For analysis of anti-HIV activity, compound samples were transferred to LC5-RIC cells and their anti-HIV activity determined by measuring compound effects on infectious virus production with the EASY-HIT assay. Relative photostability was calculated by normalizing the anti-HIV activity of the illuminated compounds to the antiviral activity of compounds kept in the dark.

## COc1oc(C2C/C(=C/C(C)=C/c3ccc(C(F)(F)F)cc3)CO2)c(C)c(=O)c1C (stereo not drawn) [compound #7]
[1]
  intracellular Gag levels: strongly suppressed production of Gag
[2]
  inhibitory effect on Reverse transcriptase activity: no inhibitory effects
[3]
  inhibitory effect on Protease activity: no inhibitory effects
HIV-1V13-03413B; read-out: IC50 value, HIV-1 V13-03413B
  pIC50: 8.38
HIV-1V13-03413B; read-out: IC90 value, HIV-1 V13-03413B
  IC90: 10.5 nM
HIV-1LAI
  anti-HIV activity retained after exposure to light: over 95%

Source: publication PMC6987146, “Potent inhibition of HIV replication in primary human cells by novel synthetic polyketides inspired by Aureothin” (Scientific Reports, 2020)
